Reference: patent US11207315B2, “Emetine compounds for treatment and prevention of flavivirus infection” (FLORIDA STATE UNIVERSITY RESEARCH FOUNDATION, INC., priority 2017, dated 2021)
pIC50: −log10 of the molar value. Where a name gives a salt, the structure may show the parent alone.

How the values were obtained:
ZIKV (three strains) [1] = assay: infectious ZIKV production from SNB-19 cells, focus-forming unit assay on Vero cells; assay type: cell-based; conditions: Zika virus, for each of three ZIKV strains
Description: FIGS. 1A-B. Antiviral activity of emetine against ZIKV infection. ZIKV production from human glioblastoma SNB-19 cells treated with increasing concentrations of emetine. 24 hours post-infection, supernatants from SNB-19 cells were titrated onto naïve Vero cells plated in a monolayer in 96-well plates for infectious focus-forming unit assay as previously described and focus forming units quantified.
(§1) IC50 for each strain is ≤˜10 nM.
Cell line cultures. The glioblastoma SNB-19 cell line (part of the National Cancer Institute 60 human tumor cell line) was a gift from Dr. David Meckes (Florida State University, Tallahassee, Fla.). SNB-19 cells were maintained at 37° C. in 5% CO2 in […], 1× penicillin/streptomycin, and 10% fetal bovine serum (Invitrogen). The Aedes albopictus C6/36 cell line (ATCC) was maintained at 28° C. in 5% CO2.
Preparation of ZIKV and cell infection. The MR766-ZIKV stock with the titer of 1×10^5 Tissue Culture Infective Dose (TCID)/ml in the form of culture fluid from an infected rhesus Macaca cell line LLC-MK2, was originally obtained from ZeptoMetrix (Buffalo, N.Y.). The FSS13025-ZIKV strain was obtained from Drs. Robert Tesh and Pei-Yong Shi (University of Texas Medical Branch, Galveston, Tex.). […] C6/36-amplified ZIKV titer was determined by infecting Vero cells for 48 hours with a methyl-cellulose overlay and analyzed for focus-forming units per mL (FFU/ml). […]

ZIKV (three strains) [2] = assay: immunofluorescence staining and quantification of ZIKV positive SNB-19 cells; assay type: cell-based, Zika virus; conditions: one of three ZIKV strains; emetine at 0.01, 0.1, or 1 μM
Description: Immunofluorescence (IF) staining (FIG. 2A) and quantification (FIG. 2B) of ZIKV positive SNB-19 cells following infection with one of three ZIKV strains and treatment with emetine at 0.01, 0.1, or 1 μM. Emetine is effective against all three ZIKV strains tested.
Preparation of ZIKV and cell infection. The MR766-ZIKV stock with the titer of 1×10^5 Tissue Culture Infective Dose (TCID)/ml in the form of culture fluid from an infected rhesus Macaca cell line LLC-MK2, was originally obtained from ZeptoMetrix (Buffalo, N.Y.). The FSS13025-ZIKV strain was obtained from Drs. Robert Tesh and Pei-Yong Shi (University of Texas Medical Branch, Galveston, Tex.). The PRVABC59 strain was obtained from ATCC (Manassas, Va.). Original viral stocks were then amplified in Aedes albopictus clone C6/36 cells. Briefly, C6/36 cells were inoculated with viral inoculum for one hour at 28° C. in low volume of media (3 ml per T-75 flask), with rocking every 15 minutes, before addition of 17 ml media. Viral inoculated cells were incubated at 28° C. for 6-7 days before harvesting of supernatant. C6/36-amplified ZIKV titer was determined by infecting Vero cells for 48 hours with a methyl-cellulose overlay and analyzed for focus-forming units per mL (FFU/ml). In mock infections, an equal volume of spent uninfected C6/36 culture medium was used. […]

PRVABC59-ZIKV = assay: time of addition: drug added 1 hour prior to or 4 hours post infection, NS1 Western blot and ZIKV-ENV IF staining; assay type: cell-based, Zika virus; conditions: added before or after infection; 1 μM
Description: as §1
Drug (emetine) was added at 1 μM either 1-hour prior to infection with PRVABC59-ZIKV, or 4-hours post infection with PRVABC59-ZIKV.
FIGS. 6A-B show IF staining of ZIKV-ENV Vero cells after a 24-hour infection. Drug was added at 1 μM either 1-hour prior to infection with PRVABC59-ZIKV, or 4-hours post infection with PRVABC59-ZIKV.
Immunocytochemistry. Cells were fixed with 4% paraformaldehyde (Sigma) for 15 min at room temperature. Samples were permeabilized and blocked with 0.25% Triton X-100 (Sigma) and 10% donkey or goat serum in PBS for 20 min as previously described (Chiang et al., 2011; [41]; Yoon et al., 2014). Samples were then incubated with primary antibodies at 4° C. overnight, followed by multiple PBST washes and incubation with secondary antibodies for 1 h at room temperature. Slides were mounted using VECTASHIELD with DAPI (Vectorlabs, Burlingame, Calif.). The following primary antibodies were used: anti-flavivirus group antigen (clone D1-4G2-4-15; mouse; 1:500; Millipore), and anti-cleaved caspase-3 ([…]; Rabbit; 1:500; Cell Signaling Technology). Antibodies were prepared in PBS containing 0.25% Triton X-100 and 10% donkey serum. Images were taken by Zeiss LSM 700 and 880 confocal microscopes, Olympus BX61, or Zeiss Axiovert 200M microscope.
Western blot. […]

HEK293 cells = assay: Toxicity IC50 (cell-killing activity) in the compound screen; assay type: cell-based, Human
ZIKV [3] = assay: serum viral load (ZIKV NS1 ELISA) in ZIKV-challenged mice; assay type: in vivo, Ifnar1−/− mice; conditions: for decrease in serum viral load: serum at day 3; for reduction in serum viral load: until day 3
Description: (§2) FIG. 8. Zika virus load estimation in mouse serum following emetine treatment. Serum was separated. NS1 protein was estimated using ZIKV-NS1 ELISA kit (Biofront, Tallahassee, Fla.) as per the manufacturer's protocol. Briefly, 5 μl of the serum was lysed with equal volume of lysis buffer for 30 min at 37° C. A 1:900 dilution of the serum was done using sample dilution buffer and added to ELISA plates. Reactions were quantified using HRP conjugated antibody and TMB. Absorbance was taken at 450 nm after adding the stop solution. Statistical analysis was done using the Mann-Whitney ANOVA. *p<0.05, **p<0.01, ***p<0.001.
as §2, with “9.” for “8.”, “treatment before and after Zika virus challenge.” for “treatment.”, “1:300” for “1:900”
NS1 ELISA. The anti-ZIKV NS1 ELISA (ZKV-NS1-EK) was obtained from BioFront Technologies (Tallahassee, Fla.) and used according to the manufacturer's protocol.
Ifnar1−/− mice (7-8 wk old, male and female, Jackson Lab) were dosed (i.p) with Emetine 1 mg/kg/day (n=6), 2 mg/kg/day (n=8) or saline (Vehicle control, n=8) starting at 24 hours prior to challenging with ZIKV (10^3, Focal forming unit (FFU)) on day 0. Drug was continued until day 6. At peak viremia (day 3), a blood sample was taken from the tail vein and serum was separated and stored at −70° C. till further analysis. The body weight were monitored twice daily until day 10. Mice reaching humane end points were euthanized. With emetine treatment, there was a 30% and 37% decrease in serum viral load with 1 mg/kg and 2 mg/kg treatment, respectively.
(§3) Ifnar1−/− mice (8 wk old, male and female) were dosed with Emetine 2 mg/kg/day i.p. starting at 24 hours prior (n=8) or 24 after (n=7) the challenging with ZIKV on day 0. Drug was continued till day 3. Mice were euthanized, and blood and liver tissue were collected.

ZIKV [4] = assay: liver viral load (NS1 gene expression by real time PCR) in ZIKV-challenged mice; assay type: in vivo, Ifnar1−/− mice; conditions: until day 3
Description: FIG. 10. Zika virus load estimation in mouse liver following emetine treatment before and after Zika virus challenge. From 30 mg of liver tissue stored in RNAlater (Qiagen), total RNA was isolated using RNeasy mini kit (Qiagen) and converted to cDNA. Viral NS1 gene expression was estimated by real time PC Relative expression of the NS1 gene was calculated using ZIKV-NS1 specific primers and GAPDH primers. Statistical analysis was done using the Mann-Whitney ANOVA. *p<0.05, **p<0.01, ***p<0.001.
as §3

[5] = 2 mg/kg i.p. starting 24 hours after ZIKV challenge
[6] = 2 mg/kg i.p. starting 24 hours prior to ZIKV challenge

SMILES	pIC50 (ZIKV (three strains) [1])	ZIKV positive SNB-19 cells (IF) (ZIKV (three strains) [2])	effect on ZIKV infection by time of addition (PRVABC59-ZIKV)	Tox IC50 (HEK293 cells)	decrease in serum viral load (ZIKV [3]; 1 mg/kg/day i.p. from 24 hours prior to challenge) [%]	decrease in serum viral load (ZIKV [3]; 2 mg/kg/day i.p. from 24 hours prior to challenge) [%]	reduction in liver viral load (ZIKV [4]; [5]) [%]	reduction in liver viral load (ZIKV [4]; [6]) [%]	reduction in serum viral load (ZIKV [3]; [5]) [%]	reduction in serum viral load (ZIKV [3]; [6]) [%]
CC[C@H]1CN2CCc3cc(OC)c(OC)cc3[C@@H]2C[C@@H]1C[C@H]1NCCc2cc(OC)c(OC)cc21 [Emetine, emetine]	≥ 8.00	reduces ZIKV infection in a dosage dependent manner	effective against ZIKV infection when added before or after infection	No	30	37				
CC[C@H]1CN2CCc3cc(OC)c(OC)cc3[C@@H]2C[C@@H]1C[C@H]1NCCc2cc(OC)c(OC)cc21 [emetine dihydrochloride]							35	42	32	55
